Reference: the NIST ThermoML archive (doi:10.1016/j.fluid.2014.12.040)
Numbers after ± are expanded uncertainties.

Tests used:
[1] = for surface tension liquid-gas: Wilhelmy-plate method; for mass density: 100 kPa, Liquid, Vibrating tube method
[2] = xn = mol fraction of the nth substance listed; details: for surface tension liquid-gas: Wilhelmy-plate method; for mass density: 100 kPa, Liquid, Vibrating tube method

O [water]
surface tension liquid-gas ([1]; 298.15 K): 72.03 ± 0.2 mN/m | surface tension liquid-gas ([1]; 308.15 K): 70.3 ± 0.2 mN/m | surface tension liquid-gas ([1]; 318.15 K): 68.7 ± 0.2 mN/m | surface tension liquid-gas ([1]; 328.15 K): 66.9 ± 0.2 mN/m | mass density ([1]; 328.15 K): 985.66 ± 0.04 kg/m3

O [water] + CC(O)CO
surface tension liquid-gas ([2]; 298.15 K, x2 = 0): 72.03 ± 0.2 mN/m | surface tension liquid-gas ([2]; 308.15 K, x2 = 0): 70.3 ± 0.2 mN/m | surface tension liquid-gas ([2]; 318.15 K, x2 = 0): 68.7 ± 0.2 mN/m | surface tension liquid-gas ([2]; 328.15 K, x2 = 0): 66.9 ± 0.2 mN/m | mass density ([2]; 328.15 K, x2 = 0): 985.66 ± 0.04 kg/m3

CC(C)O [propan-2-ol]
surface tension liquid-gas ([1]; 298.15 K): 20.85 ± 0.05 mN/m | mass density ([1]; 298.15 K): 781.18 ± 0.12 kg/m3 | surface tension liquid-gas ([1]; 308.15 K): 20.1 ± 0.05 mN/m | mass density ([1]; 308.15 K): 772.32 ± 0.12 kg/m3 | surface tension liquid-gas ([1]; 318.15 K): 19.4 ± 0.05 mN/m | mass density ([1]; 318.15 K): 763.61 ± 0.13 kg/m3 | surface tension liquid-gas ([1]; 328.15 K): 18.75 ± 0.05 mN/m | mass density ([1]; 328.15 K): 754.84 ± 0.13 kg/m3

CC(O)CO (centres undefined) [1,2-propanediol]
surface tension liquid-gas ([1]; 298.15 K): 35.74 ± 0.2 mN/m | mass density ([1]; 298.15 K): 1032.69 ± 0.05 kg/m3 | surface tension liquid-gas ([1]; 308.15 K): 35.35 ± 0.2 mN/m | mass density ([1]; 308.15 K): 1025.21 ± 0.05 kg/m3 | surface tension liquid-gas ([1]; 318.15 K): 34.96 ± 0.2 mN/m | mass density ([1]; 318.15 K): 1017.51 ± 0.04 kg/m3 | surface tension liquid-gas ([1]; 328.15 K): 34.6 ± 0.2 mN/m | mass density ([1]; 328.15 K): 1009.78 ± 0.04 kg/m3

CC(C)O [propan-2-ol] + CC(O)CO
surface tension liquid-gas ([2]; 298.15 K, x1 = 1): 20.85 ± 0.2 mN/m | mass density ([2]; 298.15 K, x1 = 1): 781.18 ± 0.12 kg/m3 | surface tension liquid-gas ([2]; 308.15 K, x1 = 1): 20.1 ± 0.2 mN/m | mass density ([2]; 308.15 K, x1 = 1): 772.32 ± 0.12 kg/m3 | surface tension liquid-gas ([2]; 318.15 K, x1 = 1): 19.4 ± 0.2 mN/m | mass density ([2]; 318.15 K, x1 = 1): 763.61 ± 0.13 kg/m3 | surface tension liquid-gas ([2]; 328.15 K, x1 = 1): 18.75 ± 0.2 mN/m | mass density ([2]; 328.15 K, x1 = 1): 754.84 ± 0.13 kg/m3
